Test results reported in US10302631B2, “Genetically encoded probe for quantification of pyruvate concentration and methods of using the same” (CENTRO DE ESTUDIOS CLENTIFICOS DE VALDIVIA, priority 2013, dated 2019).

Experiments:
[1] = system: monocarboxylate transporter (MCT); test: Initial rate of uptake of 1 mM pyruvate measured with the sensor, inhibition by MCT blockers; format: cell-based, mice; details: astrocytic uptake
Description: In this first embodiment, with the information obtained in the calibration step, the disruption of the steady-state of pyruvate entering the cell is carried out by altering the extracellular concentration of pyruvate, thus exposing the cells to pyruvate. This causes a rise in intracellular pyruvate that is monitored with the pyruvate sensor and whose initial rate is independent of pyruvate metabolism and can be used to estimate kinetic parameters (FIG. 18). Exposure of the cells to increasing concentrations of pyruvate allows the estimation of kinetic parameters for the pyruvate transporter. Kinetic parameters are also obtained from the decrease in intracellular pyruvate after removal of extracellular pyruvate. The identity of the transport pathway for pyruvate can be determined by the use of pharmacological blockers of specific transporter proteins, such as phloretin or AR-C155858 (FIG. 18 and FIG. 19), or other such as parachloromercurybenzoate, anti-MCT antisera, etc., or with compounds that interfere with the expression of specific transporter proteins, such as shRNA or siRNA, or by other similar means.
Animals and Cell Cultures. […]
(§1) Fluorescence Measurements. Nickel-purified proteins were resuspended at 100 nM in an intracellular buffer containing (mM): 10 NaCl, 130 KCl, 1.25 MgSO4 and 10 HEPES, pH 7.0, and measured with a microplate reader analyzer (EnVision, PerkinElmer). […]

HEK293 cells = test: Rate of cellular pyruvate production after MCT blockage; format: cell-based
Description: In this second embodiment cells are incubated under physiological concentrations of glucose, lactate and pyruvate, and with the information obtained in the calibration step and the known sensitivity of surface pyruvate transporters to specific inhibitors, the steady-state of pyruvate is acutely disrupted by blocking the function of pyruvate transporter, for example by addition of a pharmacological blocker of the pyruvate transporter. In mammalian cells, the pyruvate transporter is the MCT and can be blocked with phloretin, parachloromercurybenzoate, AR-C155858, anti-MCT antisera, or other suitable compounds. […] If the cell is a net pyruvate importer, application of the MCT-blocker causes a fall in intracellular pyruvate concentration, the initial rate of which is equal to the rate of pyruvate consumption on the steady-state. […] A critical property of this sensor is that has a single component of binding so that it allows accurate quantitation of these rates. […]
as §1, with “PerkinElmer). The proteins were excited at 430 nm and the intensity of fluorescence emission of mTFP and Venus were recorded at 485 nm (FmTFP) and 528 nm (FVenus), respectively.” for “PerkinElmer).”

[2] = system: mitochondrial pyruvate consumption in HEK293 cells; test: Rate of mitochondrial pyruvate consumption, pyruvate as exclusive substrate, after MCT blockage; format: cell-based
Pyronic = test: Specificity: effect of a panel of metabolites on the purified sensor and on its response to pyruvate; format: biochemical, Escherichia coli
Description: The specificity was investigated by exposing the sensor to high concentrations of a panel of metabolites of natural occurrence (FIG. 9). From the chosen set of molecules, citrate and oxalacetate produced a modest effect at 1 mM, and a very small at 100 μM Oxalacetate levels are in the low micromolar range and should not affect the pyruvate sensor, and cytosolic citrate levels are below 100 μM (Siess et al., 1978; Kauppinen et al., 1982), and therefore should have a negligible effect on the pyruvate sensor. Further to explore the specificity, the effect of a panel of metabolites on the response of the sensor to pyruvate was explored (FIGS. 10, 11 and 12). […] The response of the sensor to pyruvate was insensitive to the extreme values of the redox ratio, achieved by manipulating NAD^+ and NADH (FIG. 13).
Fluorescence Measurements. Nickel-purified proteins were resuspended at 100 nM in an intracellular buffer containing (mM): 10 NaCl, 130 KCl, 1.25 MgSO4 and 10 HEPES, pH 7.0, and measured with a microplate reader analyzer (EnVision, PerkinElmer). The proteins were excited at 430 nm and the intensity of fluorescence emission of mTFP and Venus were recorded at 485 nm (FmTFP) and 528 nm (FVenus), respectively. The ratio (R) between FmTFP and FVenus was used to characterize the sensors. Emission spectra were obtained at 430 nm excitation, with 2 nm windows. Cells were imaged at room temperature (22-25° C.) in a 95% air/5% CO2-gassed solution of the following composition (in mM): 112 NaCl, 1.25 CaCl2, 1.25 MgSO4, 1-2 glucose, 10 HEPES, 24 NaHCO^3, pH 7.4, with 3 mM KCl (astrocytes) or 5 mM KCl (HEK and T98G) using an upright Olympus FV1000 Confocal Microscope equipped with a 20× water immersion objective (N.A. 1.0) and a 440 nm solid-state laser. Alternatively, cells were imaged with an Olympus IX70 or with an Olympus BX51 microscope equipped with a 40× oil-immersion objective (NA 1.3) or with a 20× water-immersion objective (NA 0.95). Microscopes were equipped with CAIRN monochromators (Faversham, UK), and either a Hamamatsu Orca camera controlled by Kinetics software or a Rollera camera controlled with Metafluor software, respectively. For sensor ratio measurements, cells were excited at 430 nm for 0.2-0.8 s. Emission was divided with a CAIRN Optosplit, equipped with band pass filters at 480±20 (FmTFP) and 535±15 nm (FVenus). The ratio between FmTFP and FVenus was used to measure pyruvate.

In the case of Cc1n[nH]c(C)c1Cc1sc2c(c1C(=O)N1C[C@H](O)CO1)c(=O)n(C)c(=O)n2CC(C)C [AR-C155858], the “inhibition of initial rate of uptake of 1 mM pyruvate” value ([1]; blocker at 1 μM) is reported as “strongly inhibited”, the “change in intracellular pyruvate after MCT blockage” value (HEK293 cells; HEK293 cells, blocker at 1 μM) is reported as “increase in intracellular pyruvate” and the “rate of accumulation of intracellular pyruvate after MCT blockage” value (HEK293 cells; single HEK293 cell) is reported as 0.72 µM/s. The “change in cytosolic pyruvate concentration after MCT blockage” value ([2]; cells deprived of glucose, high extracellular pyruvate) was “fall in the cytosolic pyruvate concentration” and the “rate of decrease in intracellular pyruvate after MCT blockage” value ([2]; single HEK293 cell, pyruvate as exclusive substrate) was 1.73 µM/s.
With O=C(O)CC(O)(CC(=O)O)C(=O)O [citrate] the “effect on the fluorescence ratio of the sensor” value (“effect on the fluorescence ratio” below) (Pyronic; metabolite at 100 μM) was “very small”, the “effect on the response of the sensor to pyruvate” value (Pyronic; metabolite at 100 μM) was “very small effect” and the “effect on the fluorescence ratio” value (Pyronic; metabolite at 1 mM) was “modest effect”. For the same compound, the “effect on the response of the sensor to pyruvate” value (Pyronic; metabolite at 1 mM) was “significant effect”.
With O=C(O)CC(=O)C(=O)O [oxalacetate] the “effect on the fluorescence ratio” value (Pyronic; metabolite at 100 μM) was “very small” and the “effect on the fluorescence ratio” value (Pyronic; metabolite at 1 mM) was “modest effect”.
O=C(CCc1ccc(O)cc1)c1c(O)cc(O)cc1O [phloretin] was tested, and the “inhibition of initial rate of uptake of 1 mM pyruvate” value ([1]; blocker at 50 μM) was “strongly inhibited”.
